The text below walks through data of ChEMBL document CHEMBL5149995, “An Alkynylpyrimidine-Based Covalent Inhibitor That Targets a Unique Cysteine in NF-κB-Inducing Kinase” (J Med Chem, 2021).

In brackets after ≈: the same amount, converted by molar mass. Activity calls are given as the source filed them. No cut-off for these calls is given here.

For data set [1], the target named is Mitogen-activated protein kinase kinase kinase 14 (Homo sapiens, UniProt Q99558, S549D). Briefly: Inhibition of His6-tagged human NIK (330 to 680 residues) S549D mutant expressed in baculovirus-infected Sf9 cells incubated for 30 mins in presence of ATP by ADP-GloTM assay. (ADP-Glo first removes unused ATP, then detects ADP through luciferase.)
Data set [2] concerns the target Mitogen-activated protein kinase kinase kinase 14 (Homo sapiens) (UniProt Q99558). Briefly: Covalent binding affinity to NIK (unknown origin) assessed as protein-compound adduct formation by measuring increase in 330Da mass at 100 uM incubated for 6 hrs by mass spectrometry.
For data set [3] the target is unchanged. Briefly: Covalent binding affinity to NIK (unknown origin) assessed as labeling at Cys444 residue using Ala438-Arg451 peptide incubated for 18 hrs measured after tryptic digestion by MS/MS fragmentation spectral analysis.
The target of data set [4] is Mitogen-activated protein kinase kinase kinase 9 (Homo sapiens) (UniProt P80192). Nature of the data set: Inhibition of MLK1 (unknown origin) at 1 uM relative to control.
Data set [5] concerns the target Receptor tyrosine-protein kinase erbB-4 (Homo sapiens) (UniProt Q15303). Briefly: Inhibition of HER4 (unknown origin) at 1 uM relative to control.
Data set [6] has as its target T1, Serine/threonine-protein kinase Sgk1 (Homo sapiens) (UniProt O00141).
T1 sequence (whole entry): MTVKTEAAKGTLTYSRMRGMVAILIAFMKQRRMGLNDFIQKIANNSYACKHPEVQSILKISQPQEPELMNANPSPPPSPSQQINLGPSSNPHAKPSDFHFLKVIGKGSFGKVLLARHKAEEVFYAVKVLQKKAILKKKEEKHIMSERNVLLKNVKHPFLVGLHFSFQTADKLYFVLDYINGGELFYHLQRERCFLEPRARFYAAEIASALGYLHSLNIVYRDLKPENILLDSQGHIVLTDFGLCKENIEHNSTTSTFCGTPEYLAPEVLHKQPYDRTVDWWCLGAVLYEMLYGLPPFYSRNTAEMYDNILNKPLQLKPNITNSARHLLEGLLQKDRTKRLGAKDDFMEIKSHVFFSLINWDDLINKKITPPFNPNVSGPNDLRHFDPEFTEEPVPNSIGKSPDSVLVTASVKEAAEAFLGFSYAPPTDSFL
Nature of the data set: Inhibition of SGK1 (unknown origin) at 1 uM relative to control.

The target of data set [7] is T2, Mitogen-activated protein kinase kinase kinase 7 (Homo sapiens) (UniProt O43318).
T2 sequence (whole entry): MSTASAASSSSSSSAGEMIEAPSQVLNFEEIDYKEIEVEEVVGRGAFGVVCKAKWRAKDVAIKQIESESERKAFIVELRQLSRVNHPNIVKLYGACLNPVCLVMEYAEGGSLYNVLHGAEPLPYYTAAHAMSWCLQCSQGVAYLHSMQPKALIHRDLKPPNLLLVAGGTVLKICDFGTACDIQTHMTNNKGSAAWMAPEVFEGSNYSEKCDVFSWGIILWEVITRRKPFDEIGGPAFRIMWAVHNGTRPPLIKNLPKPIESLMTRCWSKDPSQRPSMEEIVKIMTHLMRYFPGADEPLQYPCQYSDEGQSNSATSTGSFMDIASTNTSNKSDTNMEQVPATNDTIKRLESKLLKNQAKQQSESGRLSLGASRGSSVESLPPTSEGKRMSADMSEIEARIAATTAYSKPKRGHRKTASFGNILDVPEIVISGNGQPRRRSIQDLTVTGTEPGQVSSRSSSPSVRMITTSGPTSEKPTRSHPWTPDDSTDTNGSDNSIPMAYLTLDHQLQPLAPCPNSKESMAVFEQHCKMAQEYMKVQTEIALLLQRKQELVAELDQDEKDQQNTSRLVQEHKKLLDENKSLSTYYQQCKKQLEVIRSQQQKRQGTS
Briefly: Inhibition of TAK1 (unknown origin) at 1 uM relative to control.

Data set [8] concerns the target Platelet-derived growth factor receptor alpha (Homo sapiens) (UniProt P16234). Briefly: Inhibition of PDGFRA (unknown origin) at 1 uM relative to control.
Data set [9] concerns the target Tyrosine-protein kinase BTK (Homo sapiens) (UniProt Q06187). Nature of the data set: Inhibition of BTK (unknown origin) at 1 uM relative to control.
Data set [10] deals with Receptor-interacting serine/threonine-protein kinase 2 (Homo sapiens) (UniProt O43353). Nature of the data set: Inhibition of RIPK2 (unknown origin) at 1 uM relative to control.
The target in data set [11] is Aurora kinase B (Homo sapiens) (UniProt Q96GD4). Briefly: Inhibition of Aurora B (unknown origin) at 1 uM relative to control.
For data set [12], the species on record is Homo sapiens. Briefly: Inhibition of VEGFR (unknown origin) at 1 uM relative to control.
The target of data set [13] is Serine/threonine-protein kinase SIK2 (Homo sapiens) (UniProt Q9H0K1). Briefly: Inhibition of SIK2 (unknown origin) at 1 uM relative to control.
Data set [14] concerns Z-138. Nature of the data set: Antiproliferative activity against NIK-activated human Z138 cells assessed as inhibition of cell growth incubated for 72 hrs by XTT assay. Format: functional. In general terms: Formazan colour is commonly taken as a measure of viable cells.
The subject of data set [15] is Maver1. Briefly: Antiproliferative activity against NIK-activated human MAVER-1 cells assessed as inhibition of cell growth incubated for 72 hrs by XTT assay. The class given is functional.
The test system of data set [16] is MCF7. Briefly: Antiproliferative activity against NIK-independent human MCF7 cells assessed as inhibition of cell growth incubated for 72 hrs by XTT assay. The class given is functional.
Data set [17] can be described thus: Lipophilicity, log D of the compound at pH 7.4. The class given is physicochemical. The conditions noted are these: buffer.
Data set [18] in a line: Solubility of the compound. The class given is physicochemical.
Data set [19] in a line: Apparent permeability across apical to basolateral side in human Caco-2 cells. The class given is ADME, cell-based. A general note: Caco-2 monolayers are a common model of the intestinal barrier.
Data set [20] in a line: Apparent permeability across basolateral to apical side in human Caco-2 cells. Format: ADME, cell-based.
Data set [21] can be described thus: Intrinsic clearance in rat hepatocytes measured per million of cells. The class given is ADME, cell-based, Hepatocyte. The conditions noted are these: read-out: CLH.
Data set [22] in a line: Intrinsic clearance in human hepatocytes measured per million of cells. Format: ADME, cell-based, Hepatocyte. Conditions: read-out: CLH.
Data set [23] concerns JIM3 (Homo sapiens). Briefly: Antiproliferative activity against NIK-independent human JIM3 cells assessed as inhibition of cell growth incubated for 72 hrs by XTT assay. The conditions noted are these: JIM3, 72 h.

Chain of Mitogen-activated protein kinase kinase kinase 14 (Q99558 whole entry S549D, the tested form may be a part): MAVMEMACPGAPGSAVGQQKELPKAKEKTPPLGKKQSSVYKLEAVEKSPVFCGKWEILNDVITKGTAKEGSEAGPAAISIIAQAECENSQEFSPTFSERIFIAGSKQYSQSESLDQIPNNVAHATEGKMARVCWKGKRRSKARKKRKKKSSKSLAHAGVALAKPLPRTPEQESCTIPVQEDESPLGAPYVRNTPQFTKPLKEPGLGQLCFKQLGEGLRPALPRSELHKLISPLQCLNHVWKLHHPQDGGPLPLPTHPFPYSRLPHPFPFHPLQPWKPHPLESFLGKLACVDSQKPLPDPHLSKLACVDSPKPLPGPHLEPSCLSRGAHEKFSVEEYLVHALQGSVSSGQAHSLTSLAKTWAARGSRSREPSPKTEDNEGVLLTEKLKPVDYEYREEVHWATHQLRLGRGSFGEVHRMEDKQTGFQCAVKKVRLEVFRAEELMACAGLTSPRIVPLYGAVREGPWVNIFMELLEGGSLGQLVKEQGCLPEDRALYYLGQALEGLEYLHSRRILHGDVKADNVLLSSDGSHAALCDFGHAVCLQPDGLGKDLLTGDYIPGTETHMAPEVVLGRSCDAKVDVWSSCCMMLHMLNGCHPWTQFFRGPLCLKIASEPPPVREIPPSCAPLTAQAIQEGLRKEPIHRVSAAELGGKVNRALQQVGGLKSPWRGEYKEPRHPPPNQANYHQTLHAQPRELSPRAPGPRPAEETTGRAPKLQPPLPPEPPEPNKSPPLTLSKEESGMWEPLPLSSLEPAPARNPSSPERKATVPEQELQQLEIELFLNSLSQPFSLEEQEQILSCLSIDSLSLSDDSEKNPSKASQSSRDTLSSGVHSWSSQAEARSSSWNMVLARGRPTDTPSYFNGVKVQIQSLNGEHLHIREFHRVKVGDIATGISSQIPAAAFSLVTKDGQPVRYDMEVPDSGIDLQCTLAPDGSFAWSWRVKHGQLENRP
Chain of Mitogen-activated protein kinase kinase kinase 14 (Homo sapiens) (Q99558 whole entry, looked up, the tested form may be a part): as the sequence (Q99558 whole entry S549D, the tested form may be a part) above, with D549S counted along it
Chain of Mitogen-activated protein kinase kinase kinase 9 (Homo sapiens) (P80192 whole entry, looked up): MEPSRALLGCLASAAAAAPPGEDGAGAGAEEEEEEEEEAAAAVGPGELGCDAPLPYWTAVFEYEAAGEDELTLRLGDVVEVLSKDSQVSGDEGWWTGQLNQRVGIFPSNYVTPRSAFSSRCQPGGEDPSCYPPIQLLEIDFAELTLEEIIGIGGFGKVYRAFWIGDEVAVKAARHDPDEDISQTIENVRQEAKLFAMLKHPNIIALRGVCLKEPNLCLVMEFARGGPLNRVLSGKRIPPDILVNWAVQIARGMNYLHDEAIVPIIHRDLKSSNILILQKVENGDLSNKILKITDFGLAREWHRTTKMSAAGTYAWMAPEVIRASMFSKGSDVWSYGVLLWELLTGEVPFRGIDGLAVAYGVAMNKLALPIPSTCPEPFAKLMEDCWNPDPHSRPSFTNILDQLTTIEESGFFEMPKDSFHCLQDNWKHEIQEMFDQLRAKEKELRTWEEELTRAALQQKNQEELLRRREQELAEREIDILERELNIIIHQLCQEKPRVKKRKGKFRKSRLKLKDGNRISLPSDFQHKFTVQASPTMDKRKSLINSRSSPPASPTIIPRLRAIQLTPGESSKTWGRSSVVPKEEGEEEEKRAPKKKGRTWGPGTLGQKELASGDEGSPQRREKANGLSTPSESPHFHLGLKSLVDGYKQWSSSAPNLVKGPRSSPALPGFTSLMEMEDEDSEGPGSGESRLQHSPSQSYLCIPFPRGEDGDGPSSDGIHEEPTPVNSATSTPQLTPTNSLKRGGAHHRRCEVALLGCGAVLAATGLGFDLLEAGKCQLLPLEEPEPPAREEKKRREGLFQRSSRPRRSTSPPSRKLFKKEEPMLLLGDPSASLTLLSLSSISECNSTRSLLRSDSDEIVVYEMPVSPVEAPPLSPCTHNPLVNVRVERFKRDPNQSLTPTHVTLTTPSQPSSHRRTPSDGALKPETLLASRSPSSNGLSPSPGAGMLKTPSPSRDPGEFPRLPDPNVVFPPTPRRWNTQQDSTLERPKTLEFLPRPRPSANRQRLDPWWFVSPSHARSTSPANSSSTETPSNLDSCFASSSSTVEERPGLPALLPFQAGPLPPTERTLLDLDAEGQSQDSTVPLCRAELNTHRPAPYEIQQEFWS
Chain of Receptor-interacting serine/threonine-protein kinase 2 (Homo sapiens) (O43353 whole entry): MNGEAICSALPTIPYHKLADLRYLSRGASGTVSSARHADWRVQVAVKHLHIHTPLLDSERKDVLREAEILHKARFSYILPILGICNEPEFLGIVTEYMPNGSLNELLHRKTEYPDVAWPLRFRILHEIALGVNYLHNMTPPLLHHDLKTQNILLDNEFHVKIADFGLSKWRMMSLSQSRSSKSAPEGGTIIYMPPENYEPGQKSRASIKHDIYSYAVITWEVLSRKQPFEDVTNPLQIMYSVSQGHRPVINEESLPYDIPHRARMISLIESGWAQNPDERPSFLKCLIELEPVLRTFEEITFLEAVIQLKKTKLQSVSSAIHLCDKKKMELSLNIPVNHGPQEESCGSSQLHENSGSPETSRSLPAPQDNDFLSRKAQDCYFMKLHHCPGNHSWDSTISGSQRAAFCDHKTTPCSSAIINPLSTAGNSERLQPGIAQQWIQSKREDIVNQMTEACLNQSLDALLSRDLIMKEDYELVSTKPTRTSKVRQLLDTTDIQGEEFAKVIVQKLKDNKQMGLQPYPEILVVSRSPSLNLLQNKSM
Chain of Platelet-derived growth factor receptor alpha (Homo sapiens) (P16234 whole entry): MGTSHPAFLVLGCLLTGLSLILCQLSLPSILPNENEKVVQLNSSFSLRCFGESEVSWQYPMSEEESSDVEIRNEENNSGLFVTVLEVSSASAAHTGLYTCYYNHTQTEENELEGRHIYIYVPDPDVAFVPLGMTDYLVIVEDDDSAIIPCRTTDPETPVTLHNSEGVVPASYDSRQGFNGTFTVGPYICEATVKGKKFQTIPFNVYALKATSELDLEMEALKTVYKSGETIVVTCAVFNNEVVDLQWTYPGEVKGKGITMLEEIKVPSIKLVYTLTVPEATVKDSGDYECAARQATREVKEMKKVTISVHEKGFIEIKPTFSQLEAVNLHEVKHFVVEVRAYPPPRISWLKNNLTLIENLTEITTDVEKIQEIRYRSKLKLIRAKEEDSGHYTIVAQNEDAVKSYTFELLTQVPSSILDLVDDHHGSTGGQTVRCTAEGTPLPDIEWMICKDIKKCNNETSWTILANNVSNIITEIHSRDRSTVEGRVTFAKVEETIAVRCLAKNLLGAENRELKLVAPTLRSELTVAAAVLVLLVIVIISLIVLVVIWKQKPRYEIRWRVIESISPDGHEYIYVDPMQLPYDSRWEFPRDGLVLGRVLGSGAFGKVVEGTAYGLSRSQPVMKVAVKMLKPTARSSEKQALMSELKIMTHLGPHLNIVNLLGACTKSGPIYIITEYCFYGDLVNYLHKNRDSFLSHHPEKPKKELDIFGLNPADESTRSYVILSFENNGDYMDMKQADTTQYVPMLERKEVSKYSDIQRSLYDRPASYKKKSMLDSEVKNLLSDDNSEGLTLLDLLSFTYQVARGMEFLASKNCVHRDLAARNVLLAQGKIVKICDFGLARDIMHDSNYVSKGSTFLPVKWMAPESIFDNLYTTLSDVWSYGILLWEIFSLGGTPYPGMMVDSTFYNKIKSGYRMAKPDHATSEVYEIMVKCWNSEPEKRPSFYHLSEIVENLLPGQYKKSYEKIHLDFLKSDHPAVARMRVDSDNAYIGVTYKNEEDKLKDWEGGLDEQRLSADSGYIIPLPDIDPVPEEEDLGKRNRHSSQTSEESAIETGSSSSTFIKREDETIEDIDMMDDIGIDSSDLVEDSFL
Chain of Tyrosine-protein kinase BTK (Homo sapiens) (Q06187 whole entry): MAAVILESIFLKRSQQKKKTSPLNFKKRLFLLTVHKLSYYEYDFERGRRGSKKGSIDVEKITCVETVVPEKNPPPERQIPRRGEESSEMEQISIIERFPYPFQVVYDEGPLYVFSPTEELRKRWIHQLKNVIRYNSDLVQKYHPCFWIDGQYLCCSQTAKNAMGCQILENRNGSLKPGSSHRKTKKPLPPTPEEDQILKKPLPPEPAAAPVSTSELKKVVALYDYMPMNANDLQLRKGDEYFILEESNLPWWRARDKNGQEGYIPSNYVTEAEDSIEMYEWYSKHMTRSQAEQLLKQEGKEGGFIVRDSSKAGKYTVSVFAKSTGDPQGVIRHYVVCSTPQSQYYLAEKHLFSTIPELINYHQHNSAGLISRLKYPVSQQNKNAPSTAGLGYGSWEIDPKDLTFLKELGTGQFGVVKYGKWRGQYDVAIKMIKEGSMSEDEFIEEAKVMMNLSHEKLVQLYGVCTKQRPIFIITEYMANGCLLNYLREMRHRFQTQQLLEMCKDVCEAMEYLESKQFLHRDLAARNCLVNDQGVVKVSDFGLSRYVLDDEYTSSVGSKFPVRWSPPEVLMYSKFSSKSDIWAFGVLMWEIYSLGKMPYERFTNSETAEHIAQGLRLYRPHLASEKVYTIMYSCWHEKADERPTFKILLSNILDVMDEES
Chain of Aurora kinase B (Homo sapiens) (Q96GD4 whole entry): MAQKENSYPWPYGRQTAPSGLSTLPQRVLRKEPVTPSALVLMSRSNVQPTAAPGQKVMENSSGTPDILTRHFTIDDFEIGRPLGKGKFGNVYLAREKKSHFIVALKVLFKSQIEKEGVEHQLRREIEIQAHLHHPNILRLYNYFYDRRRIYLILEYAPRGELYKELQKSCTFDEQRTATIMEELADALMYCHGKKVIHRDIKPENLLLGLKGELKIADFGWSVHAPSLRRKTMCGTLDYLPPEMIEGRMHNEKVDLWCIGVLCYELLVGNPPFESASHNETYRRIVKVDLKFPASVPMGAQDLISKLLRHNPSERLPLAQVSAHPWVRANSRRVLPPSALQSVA

Regarding `C#Cc1cccc(C#Cc2ccc3ncn(-c4ccnc(N)n4)c3c2)n1`, the IC50 in [1] was 3.16 µM.
As to `C#Cc1ccnc(C#Cc2ccc3ncn(-c4ccnc(N)n4)c3c2)n1`, the half-maximal inhibitory concentration (IC50) in data set [1] is 0.2 µM. Further, the outcome in data set [2] and in data set [3] was Active. Further, the inhibition in data set [4], in data set [5], in data set [6], in [7], in data set [8] and in data set [9] was greater than 50% each time. Besides, the inhibition in data set [10], in [11], in data set [12] and in data set [13] was greater than 50% in each case. The GI50 is 0.631 µM in [14], 0.398 µM in data set [15], 0.501 µM in [16] and 0.501 µM in [23]. Further, the logD in data set [17] worked out at 2.8. Further, the solubility in data set [18] was 3.8 µM (≈ 1.28 µg/mL). Also, in [19], the Papp A→B was 0.33 ×10⁻⁶ cm/s. The Papp B→A in [20] stood at 0.22 ×10⁻⁶ cm/s. Further, the results for the hepatocyte CLint in data set [21] and in data set [22] were 915 µL/min/1e6 cells and 382 µL/min/1e6 cells, respectively.
With `C#Cc1ccc2ncn(-c3ccnc(N)n3)c2c1`, the IC50 in data set [1] was 0.251 µM.
The same measure, in the same setting: with `C=Cc1ccc(C#Cc2ccc3ncn(-c4ccnc(N)n4)c3c2)cn1` the figure was 79.4 µM; with `C=CC(=O)NCCCc1ccc2ncn(-c3ccnc(N)n3)c2c1`, 501 µM; with `Cc1ccnc(C#Cc2ccc3ncn(-c4ccnc(N)n4)c3c2)n1`, 1.58 µM.
For `C#Cc1ccnc(C#Cc2ccc3ncn(-c4ccnc(N)n4)c3c2)c1`, in [1], the IC50 is 0.316 µM. In addition, the concentration for 50% growth inhibition (GI50) in [14] is 7.94 µM; in [15], 10 µM; in data set [16], greater than 10 µM; in data set [23], greater than 7.94 µM.
For `CCc1ccc2ncn(-c3ccnc(N)n3)c2c1`, the 50% inhibitory concentration (IC50) in data set [1] was 79.4 µM.
Still for that read-out and setting: with `C#Cc1cncc(C#Cc2ccc3ncn(-c4ccnc(N)n4)c3c2)n1` the figure was 6.31 µM; with `C=Cc1cc(C#Cc2ccc3ncn(-c4ccnc(N)n4)c3c2)ccn1`, 20 µM.
Same read-out and setting: with `C#Cc1nccc(C#Cc2ccc3ncn(-c4ccnc(N)n4)c3c2)n1` the figure was 39.8 µM; with `C#Cc1cncc(C#Cc2ccc3ncn(-c4ccnc(N)n4)c3c2)c1`, 63.1 µM; with `C=CC(=O)NCCCCc1ccc2ncn(-c3ccnc(N)n3)c2c1`, 501 µM.
As to `COc1cc(C(N)=O)nc(-c2cccc(C#C[C@]3(O)CCN(C)C3=O)c2)c1`, the GI50 in data set [14] was 20 µM; in data set [15] it was 3.98 µM; in data set [16], greater than 31.6 µM; in [23], greater than 31.6 µM.
Take `C=CC(=O)NCC#Cc1ccc2ncn(-c3ccnc(N)n3)c2c1`: in data set [1], the IC50 is 6.31 µM.
Regarding `C#Cc1cc(C#Cc2ccc3ncn(-c4ccnc(N)n4)c3c2)ccn1`, the IC50 in data set [1] was 31.6 µM.
Still for that read-out and setting: with `COCCOc1cnc(N)nc1-c1c[nH]c2ccc(C#CC(C)(C)O)cc12` the figure was 0.0398 µM; with `CC(=O)NCCCCc1ccc2ncn(-c3ccnc(N)n3)c2c1`, 398 µM; with `C#Cc1cnc(C#Cc2ccc3ncn(-c4ccnc(N)n4)c3c2)nc1`, 25.1 µM.
Regarding `C=Cc1ccnc(C#Cc2ccc3ncn(-c4ccnc(N)n4)c3c2)c1`, the IC50 in data set [1] was 1.58 µM. Further, the GI50 was 0.398 µM in [14], 0.501 µM in [15], 1.26 µM in data set [16] and 1.58 µM in [23].
`CC(O)(C#Cc1ccc2c(c1)N(c1nc(N)ncc1Cl)CC2)c1nccs1` (stereo not drawn): the IC50 in data set [1] is 0.00398 µM.
The same measure, in the same setting: with `C#Cc1ncc(C#Cc2ccc3ncn(-c4ccnc(N)n4)c3c2)cn1` the figure was 79.4 µM.
As to `C=Cc1ccnc(C#Cc2ccc3ncn(-c4ccnc(N)n4)c3c2)n1`, in data set [1], the IC50 is 1.58 µM. Moreover, the 50% growth inhibitory concentration (GI50) in data set [14] was 1 µM; in [15], 1.26 µM; in data set [16], 0.631 µM; in [23], 1.58 µM.
Take `C#Cc1cc(C#Cc2ccc3ncn(-c4ccnc(N)n4)c3c2)ncn1`: in [1], the IC50 is 50.1 µM.
Still for that read-out and setting: then `C=Cc1nccc(C#Cc2ccc3ncn(-c4ccnc(N)n4)c3c2)n1`, with 39.8 µM.
As to `CC(=O)NCCCc1ccc2ncn(-c3ccnc(N)n3)c2c1`, in data set [1], the IC50 is greater than 100 µM.

Usually IC50 stands for the concentration needed to halve the response being measured. Broadly, the inhibition is how much of the control response was suppressed. In general, GI50 refers to the concentration at which growth is held to half of that of the control. One may read the logD as lipophilicity at a set pH, counting ionised and neutral species. Read a low logD as lower lipophilicity. As a reminder, the solubility is the dissolved amount per volume that the medium holds. Low values mean little dissolved substance, high ones much dissolved substance. A word on the Papp A→B: it is how fast a substance crosses the layer from the apical side. A word on the Papp B→A: it is how fast a substance crosses the layer from the basolateral side.
